Results published in PubChem BioAssay AID2060489 (Molecular Pharmacology Branch, DTP, NCI, 2025).

System: 922993-354-T-J3-PDC complex spheroids, viability
Assay: Anticancer human tumor 922993-354-T-J3-PDC patient-derived endometrial carcinoma cell line growth inhibition [GQUAD]
Settings: for viability, T/C: stronger effect = lower value; for IC50: curve of first compound; active = viability on the fitted dose curve at most 10% of control; inactive = the rest
Description: DNA G-quadruplex Stabilizer Agents in Combinations in Complex Spheroids
A high-throughput screen of multi-cell type tumor spheroids was designed to identify active combinations of DNA G-quadruplex stabilizer agents and targeted small molecules. Complex spheroids include a stromal component modeled by human endothelial cells (HUVEC) and fibroblasts modeled by human mesenchymal stem cells (MSCs). The concentration ranges selected for each drug and investigational agent were based upon clinically achievable concentrations if the clinical Cmax of the agent was known.
Compounds. The drugs and investigational agents: pidnarulex (CX-5461; NSC782164), APTO-253 (NSC789042), BRACO-19 (NSC847499), peposertib (NSC802822), ceralasertib (NSC780249), elimusertib (NSC800525), camonsertib (NSC841442), AZD-1390 (NSC803789), olaparib (NSC753686), talazoparib (NSC767125), ART-558 (NSC835418), sotorasib (NSC818433), MRTX-1133 (NSC836407), SN-38 (NSC673596), topotecan (NSC609699), etoposide (NSC141540), doxorubicin (NSC123127), gemcitabine (NSC613327), 5-fluorouracil (NSC19893), paclitaxel (NSC125973), vemurafenib (NSC761431), panobinostat (NSC761190), R-306465 (JNJ-16241199; NSC773264), adavosertib (NSC754352), TP-3654 (NSC805149), carboplatin (NSC241240), KSQ-4279 (NSC840948), and staurosporine (NSC755774) were obtained from the National Cancer Institute (NCI) Developmental Therapeutics Program Chemical Repository (34). The FDA-approved anticancer drug set is available from the NCI Developmental Therapeutics Program. […] The stock solutions were prepared in dimethyl sulfoxide (DMSO, Sigma-Aldrich, St. Louis, MO, cat. D2650) at 800-fold the tested concentration and stored at -70 degrees C prior to their use. All drugs and investigational agents were tested over a range starting from a high concentration at or near the clinical Cmax and decreasing in half-log increments. If the clinical Cmax for an agent had not been determined, the highest concentration tested was 10 microM.
2.3 Cell Culture. All cells were maintained in an incubator at 37 degrees C and 5% CO2 with 95% humidity. The PDC lines were cultured according to standard operating procedures established by the NCI PDMR. All PDCs were thawed and cultured in Matrigel-coated flasks prepared with a working solution of 1X Ham's F-12 nutrient mix, without supplementation (Invitrogen, cat. 11765054), 100 U/mL penicillin-streptomycin (Invitrogen, cat. 15140122), and 2.5% Matrigel (Corning Inc., cat. 354248) for the first three passages. The 857933-349-R-J2-PDC line was cultured in 6C/Colon 1B media, which includes advanced DMEM/F-12 (Thermo Fisher Scientific, cat. 12634028), 10 mM HEPES (Thermo Fisher Scientific, cat. 15630080), 1X GlutaMAX supplement (Thermo Fisher Scientific, cat. 35050061), 0.1 mg/mL primocin (InvivoGen, cat. ant-pm-2), 10% defined fetal bovine serum, heat inactivated (HyClone Laboratories Inc., cat. SH30070.03HI), 50% L-WRN conditioned media (ATCC, cat. CRL-3276), 1.25 mM N-Acetyl-L-cysteine (Sigma-Aldrich, cat. A9165), 10 mM nicotinamide (Sigma-Aldrich, cat. N0636), 1X B-27 supplement (Thermo Fisher Scientific, cat. 17504044), 1X N-2 supplement (Thermo Fisher Scientific, cat. 17502048), 10 microM Y-27632 dihydrochloride (Tocris Bioscience, cat. 1254), and 50 ng/mL human EGF recombinant protein (Thermo Fisher Scientific, cat. PHG0311). The 485176-168-R4-J1-PDC line was cultured in Panc media, which includes all 6C/Colon 1B media components plus 100 ng/mL human FGF-10 (Thermo Fisher Scientific, cat. 100-26), 500 nM SB-431542 (Selleckchem, cat. S1067), and gastrin (Tocris, cat. 3006).
[…]

[1] = second compound 0.0316 µM, first compound 0.0316 µM
[2] = second compound 0.0316 µM, first compound 0.1 µM
[3] = second compound 0.0316 µM, first compound 0.316 µM
[4] = second compound 0.0316 µM, first compound 1 µM
[5] = second compound 0.0316 µM, first compound 3.16 µM
[6] = second compound 0.0316 µM, first compound 10 µM
[7] = second compound 0.1 µM, first compound 0.0316 µM
[8] = second compound 0.1 µM, first compound 0.1 µM
[9] = second compound 0.1 µM, first compound 0.316 µM
[10] = second compound 0.1 µM, first compound 1 µM
[11] = second compound 0.1 µM, first compound 3.16 µM
[12] = second compound 0.1 µM, first compound 10 µM
[13] = second compound 0.316 µM, first compound 0.0316 µM
[14] = second compound 0.316 µM, first compound 0.1 µM
[15] = second compound 0.316 µM, first compound 0.316 µM
[16] = second compound 0.316 µM, first compound 1 µM
[17] = second compound 0.316 µM, first compound 3.16 µM
[18] = second compound 0.316 µM, first compound 10 µM
[19] = second compound 1 µM, first compound 0.0316 µM
[20] = second compound 1 µM, first compound 0.1 µM
[21] = second compound 1 µM, first compound 0.316 µM
[22] = second compound 1 µM, first compound 1 µM
[23] = second compound 1 µM, first compound 3.16 µM
[24] = second compound 1 µM, first compound 10 µM
[25] = second compound 3.16 µM, first compound 0.0316 µM
[26] = second compound 3.16 µM, first compound 0.1 µM
[27] = second compound 3.16 µM, first compound 0.316 µM
[28] = second compound 3.16 µM, first compound 1 µM
[29] = second compound 3.16 µM, first compound 3.16 µM
[30] = second compound 3.16 µM, first compound 10 µM
[31] = second compound 10 µM, first compound 0.0316 µM
[32] = second compound 10 µM, first compound 0.1 µM
[33] = second compound 10 µM, first compound 0.316 µM
[34] = second compound 10 µM, first compound 1 µM
[35] = second compound 10 µM, first compound 3.16 µM
[36] = second compound 10 µM, first compound 10 µM
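Also: spheroids exposed to compounds for seven days.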

Cc1cnc(CNC(=O)c2c(=O)c3ccc(N4CCCN(C)CC4)nc3n3c2sc2ccccc23)cn1
inactive: viability, T/C (compound 0.0316 µM) 83.9% [middle of 12 runs] | viability, T/C (compound 0.1 µM) 66% [middle of 12 runs] | viability, T/C (compound 1 µM) 53.7% [middle of 12 runs] | viability, T/C (compound 3.16 µM) 49.3% [middle of 12 runs] | viability, T/C (compound 10 µM) 46.9% [middle of 12 runs]

CC(C)n1c(=O)n(C)c2cnc3cc(F)c(-c4ccc(OCCCN5CCCCC5)nc4)cc3c21 + CN(C)c1ccc(Nc2c3ccc(NC(=O)CCN4CCCC4)cc3nc3cc(NC(=O)CCN4CCCC4)ccc23)cc1
> 10 µM: IC50 (second compound 0.0316 µM) | IC50 (second compound 0.1 µM) | IC50 (second compound 0.316 µM) | IC50 (second compound 1 µM)
7.04 µM: IC50 (second compound 3.16 µM)
inactive: viability, T/C [1] 118% | viability, T/C [2] 84.9% | viability, T/C [3] 99.3% | viability, T/C [4] 59.6% | viability, T/C [5] 91.7% | viability, T/C [6] 71.4% | viability, T/C [7] 114% | viability, T/C [8] 89.5% | viability, T/C [9] 101% | viability, T/C [10] 73.3% | viability, T/C [11] 81.7% | viability, T/C [12] 59% | viability, T/C [13] 99.3% | viability, T/C [14] 91.7% | viability, T/C [15] 97% | viability, T/C [16] 70.2% | viability, T/C [17] 84.7% | viability, T/C [18] 70.9% | viability, T/C [19] 81.2% | viability, T/C [20] 97% | viability, T/C [21] 92.2% | viability, T/C [22] 82.1% | viability, T/C [23] 77.1% | viability, T/C [24] 65% | viability, T/C [25] 96.8% | viability, T/C [26] 103% | viability, T/C [27] 98.5% | viability, T/C [28] 76% | viability, T/C [29] 67.6% | viability, T/C [30] 43% | viability, T/C [31] 114% | viability, T/C [32] 73.7% | viability, T/C [33] 114% | viability, T/C [34] 67% | viability, T/C [35] 36.1% | viability, T/C [36] 32.3%
1.82 µM: IC50 (second compound 10 µM)

CCc1c2c(nc3ccc(O)cc13)-c1cc3c(c(=O)n1C2)COC(=O)[C@]3(O)CC + Cc1cnc(CNC(=O)c2c(=O)c3ccc(N4CCCN(C)CC4)nc3n3c2sc2ccccc23)cn1
< 0.000999 µM: IC50 (second compound 0.316 µM) | IC50 (second compound 3.16 µM) | IC50 (second compound 10 µM)
0.0113 µM: IC50 (second compound 0.0316 µM)
0.00527 µM: IC50 (second compound 0.1 µM)
inactive: viability, T/C (second compound 0.0316 µM, first compound 0.000999 µM) 85.3% | viability, T/C (second compound 0.0316 µM, first compound 0.00316 µM) 74.5% | viability, T/C (second compound 0.0316 µM, first compound 0.00999 µM) 54.5% | viability, T/C [1] 25.2% | viability, T/C (second compound 0.0316 µM, first compound 0.0999 µM) 24.4% | viability, T/C [3] 31.6% | viability, T/C (second compound 0.1 µM, first compound 0.000999 µM) 66.8% | viability, T/C (second compound 0.1 µM, first compound 0.00316 µM) 63.4% | viability, T/C (second compound 0.1 µM, first compound 0.00999 µM) 33.2% | viability, T/C [7] 23.4% | viability, T/C (second compound 0.1 µM, first compound 0.0999 µM) 29.4% | viability, T/C [9] 33.4% | viability, T/C (second compound 0.316 µM, first compound 0.000999 µM) 53.9% | viability, T/C (second compound 0.316 µM, first compound 0.00316 µM) 43.3% | viability, T/C (second compound 0.316 µM, first compound 0.00999 µM) 32.2% | viability, T/C [13] 26.3% | viability, T/C (second compound 0.316 µM, first compound 0.0999 µM) 45.5% | viability, T/C [15] 52.1% | viability, T/C (second compound 1 µM, first compound 0.000999 µM) 48.7% | viability, T/C (second compound 1 µM, first compound 0.00316 µM) 60.6% | viability, T/C (second compound 1 µM, first compound 0.00999 µM) 43.5% | viability, T/C [19] 37% | viability, T/C (second compound 1 µM, first compound 0.0999 µM) 42.1% | viability, T/C [21] 38.1% | viability, T/C (second compound 3.16 µM, first compound 0.000999 µM) 44.7% | viability, T/C (second compound 3.16 µM, first compound 0.00316 µM) 44% | viability, T/C (second compound 3.16 µM, first compound 0.00999 µM) 46.5% | viability, T/C [25] 49% | viability, T/C (second compound 3.16 µM, first compound 0.0999 µM) 47.4% | viability, T/C [27] 38.8% | viability, T/C (second compound 10 µM, first compound 0.000999 µM) 37.6% | viability, T/C (second compound 10 µM, first compound 0.00316 µM) 49.3% | viability, T/C (second compound 10 µM, first compound 0.00999 µM) 45.3% | viability, T/C [31] 44.1% | viability, T/C (second compound 10 µM, first compound 0.0999 µM) 45% | viability, T/C [33] 26%
0.00512 µM: IC50 (second compound 1 µM)

CC(=O)O[C@H]1C(=O)[C@@]2(C)[C@H]([C@H](OC(=O)c3ccccc3)[C@]3(O)C[C@H](OC(=O)[C@H](O)[C@@H](NC(=O)c4ccccc4)c4ccccc4)C(C)=C1C3(C)C)[C@]1(OC(C)=O)CO[C@@H]1C[C@@H]2O + CN(C)c1ccc(Nc2c3ccc(NC(=O)CCN4CCCC4)cc3nc3cc(NC(=O)CCN4CCCC4)ccc23)cc1
inactive: viability, T/C [1] 86.5% | viability, T/C [2] 79% | viability, T/C [3] 104% | viability, T/C [4] 104% | viability, T/C [5] 65.3% | viability, T/C [6] 46.2% | viability, T/C [7] 83.4% | viability, T/C [8] 90.2% | viability, T/C [9] 113% | viability, T/C [10] 101% | viability, T/C [11] 67.3% | viability, T/C [12] 47.5% | viability, T/C [13] 73.5% | viability, T/C [14] 82.3% | viability, T/C [15] 116% | viability, T/C [16] 85.6% | viability, T/C [17] 72% | viability, T/C [18] 57.5% | viability, T/C [19] 81.1% | viability, T/C [20] 99.5% | viability, T/C [21] 96.4% | viability, T/C [22] 69.5% | viability, T/C [23] 80% | viability, T/C [24] 51.8% | viability, T/C [25] 93.7% | viability, T/C [26] 116% | viability, T/C [27] 103% | viability, T/C [28] 92.5% | viability, T/C [29] 82.6% | viability, T/C [30] 53.5% | viability, T/C [31] 99.7% | viability, T/C [32] 122% | viability, T/C [33] 125% | viability, T/C [34] 130% | viability, T/C [35] 77.6% | viability, T/C [36] 67.1%
> 10 µM: IC50 (second compound 0.316 µM) | IC50 (second compound 1 µM) | IC50 (second compound 3.16 µM) | IC50 (second compound 10 µM)
8.65 µM: IC50 (second compound 0.1 µM)
7.96 µM: IC50 (second compound 0.0316 µM)
